The values below are quoted from earlier work in article PMC4291083, “Ex Vivo Characterization of a Novel Iodine-123-Labelled Aminomethylchroman as a Potential Agonist Ligand for SPECT Imaging of Dopamine D2/3 Receptors” (International Journal of Molecular Imaging, 2014).

What all share (design): method as in PMID 24325578
Data set [1] deals with D2 high. The settings on record: in vitro; cited from earlier work.
Data set [2] relates to dopamine D4 receptor. The settings on record: in vitro; cited from earlier work.
Data set [3] concerns D2 receptor. The settings on record: agonism D2 receptor, cited from earlier work.
For data set [4], the target named is D2 low. The note with it: in vitro; cited from earlier work.
Data set [5] addresses D1 receptor. The note with it: in vitro; cited from earlier work.

As for “(R) N-[7-hydroxychroman-2-yl]-methyl 4-iodobenzyl amine [compound 1]”, the Ki in data set [1] is 3.79 nM; in data set [4], 51.8 nM; in data set [5], 8670 nM. The “binding affinity to dopamine D4 receptor” value in data set [2] is given as “binds with high-affinity”. Further, the Emax in data set [3] (cAMP) is reported as 86 % of dopamine. In addition, the “pEC50 cAMP” value in data set [3] is given as 9.2 ± 0.4.
